Source: patent US4960770A, “2-alkyl thieno(triazolo)diazepine compounds and pharmaceutical uses thereof” (Yoshitomi Pharmaceutical Industries, Ltd., priority 1987, dated 1990)
Values after ≈ are worked out from the molar mass of the structure shown. Read-outs that look alike come from different tables or passages of the source.

Key:
[1] = system: PAF-induced platelet aggregation; assay: Inhibitory effect on platelet aggregation in rabbits (in vitro test); assay type: cell-based; settings: Oryctolagus cuniculus, rabbit PRP, PAF 1.8×10^-7 M, 37° C., read-out: Inhibition of PAF-induced platelet aggregation, IC50
Procedure: (§1) Blood samples to which was added 0.1 volume of 3.8% sodium citrate were collected from rabbits. Platelet rich plasma (PRP) was prepared by centrifuging the blood sample at 200 x g for 10 minutes, and platelet poor plasma (PPP) was prepared by centrifuging the remaining blood sample at 1000 x g for 10 minutes.
(§2) Aggregation ability was measured with a turbidimetric device (6-channel NKK Hematracer 1, model PAT-6A) according to the method of G.V.R. Born described in J. Physiology, vol. 168, p. 178 (1963). The aggregometer was adjusted in sensitivity to give light transmission values of 0 and 100% for PRP and PPP, respectively. With stirring at 1000 rpm, 0.3 μl of test compound solution or vehicle was added to 0.3 ml of PRP. After the mixture was kept at 37° C. for 2 minutes, to the mixture was added 3 μl of synthesized platelet activating factor at the final concentration of 1.8×10^-7 M and the light transmission was recorded for 5 minutes.
(§3) The inhibition percentage of test compounds on platelet aggregation were calculated from the following formula by measuring the maximal light transmission in the presence and absence of the test compounds. [formula]

[2] = system: coronary artery blood flow; assay: Effect on coronary flow (coronary artery blood flow in anesthetized dogs); assay type: in vivo, mongrel dogs; settings: relative to flow increase at 3 μg nifedipine
Procedure: Adult mongrel dogs were anesthetized with sodium pentobarbital (30 mg/kg, i.v.). According to the method of Yago et al described in Folia Pharmacologica Japonica, vol. 57, p. 380 (1961), the left coronary artery was perfused and its blood flow was measured. Test compound was injected into the coronary artery at a volume of 10-30 μl. To determine the effect of the test compound on coronary artery blood flow, an increase percentage of blood flow at each dosage was calculated based on the increase of the blood flow at a dosage of 3 μg of nifedipine.

PAF-induced lethal shock = assay: Effect of PAF-induced lethal shock in mice; assay type: in vivo, male ICR mice; settings: 1 hour before PAF 80 μg/kg i.v., 24 hours
Procedure: The experiment was carried out according to the method of Young et al. described in Prostaglandins, vol. 30, p. […] Groups of 9 to 15 male ICR mice (Charles River) weighing 25-30 g were used. 80 μg/kg of PAF (Serdary Research Labo.) solution was intravenously administered in a lateral tail vein 1 hour after the oral administration of test compound (0.1 ml/10 g). […] Results were given as number of survivors/number of employed animals and survival rates (%) in Table 4.

[3] = target: T1, calmodulin (bovine encephalon) (Bos taurus, UniProt P62157); assay: Calmodulin inhibitory action (NPN fluorescence probe method); assay type: biochemical
T1 construct: calmodulin (bovine encephalon); from tissue; host or cells: bovine encephalon (brain)
Procedure: Calmodulin inhibitory action was measured according to the modified method of Epstein et al. described in Biochemical and Biophysical Research Communications, Vol. 105, p. 1142 (1982). Briefly, to 25 mM Tris-HCl buffer solution (pH 7.0) were added as a final concentration 1 mM calcium chloride, 5 μM N-phenyl-1-naphthylamine (NPN), 1000 units of calmodulin (bovine encephalon) and each of test compound to give 3 ml of final solution volume. The solution was allowed to stand at room temperature for 1 hour and the fluorescence intensity was measured by a fluorescene photometer (ex. 350 nm, em. 440 nm). A blank was prepared by adding water instead of calmodulin. Each of test compound was dissolved in dimethyl sulfoxide or 2.5% dimethyl sulfoxide solution and the final concentration of dimethyl sulfoxide was adjusted to 0.25%.

[4] = system: PAF-induced platelet aggregation; assay: Inhibitory effect on platelet aggregation in rabbits (ex vivo test); settings: 10 mg/kg p.o.; for inhibition at 10 mg/kg: Oryctolagus cuniculus, Platelet, po, read-out: % of inhibition after administration
Procedure: as §1, §2, §3
Test compound was orally administered to a group of three rabbits instead of adding it to PRP as in vitro test of Experiment 2, and then the citrated blood samples (1 volume of 3.8% sodium citrate +9 volumes of blood) were collected with the passage of time. Then, the blood samples were employed to determine the inhibitory effect according to Experiment 2.

vertebral blood flow = assay: Effect of vertebral blood flow (anesthetized dogs); assay type: in vivo, mongrel dogs; settings: Canis lupus familiaris; dose required to obtain 100% of the flow increase by intraartery 3 μg/kg nifedipine
Procedure: Adult mongrel dogs were anesthetized with sodium pentobarbital (30 mg/kg. i.v.) and the blood flow of the left vertebral artery was measured.

[5] = target: calcium/calmodulin dependent phosphodiesterase; assay: Effect on calcium/calmodulin dependent phosphodiesterase; assay type: biochemical; settings: [3H]-cAMP, pH 8.0, 37° C., 20 minutes; read-out: Inhibitory action on calcium/calmodulin dependent phosphodiesterase IC50
Procedure: The experiment was carried out according to the method of Thompson et al. described in Advances in Cyclic Nucleotide Research, Vol. 10, p. 69 (1979). Briefly, the solution of which final volume was 200μl was prepared by mixing 40 μl of 200 mM Tris-HCl buffer solution (pH 8.0), containing 25 mM magnesium chloride and 0.5 mM ethyleneglycol-bis(β-aminoethylether)-N,N '-tetra acetic acid (EGTA), 20 μof 10μM [^3 H]-cAMP (250 nCi), test compound and a solution of calcium/calmodulin dependent phosphodiesterase (PDE) enzyme. The test compound was dissolved in dimethyl sulfoxide to give 1% of final concentration. The incubation was performed at 37° C. for 20 minutes and then stopped by heating for 1 minutes in a boiling water bath. The resulting 5'-AMP was converted into adenosine by adding 50 μl of snake venom (1 mg/ml) and incubating at 30° C. for 10 minutes. Then, to the solution was added 500 μl of AGI-X8 (methanol:resin=3:2) and the mixture was allowed to stand under ice-cooling for 15 minutes with occasional shaking to adsorb the unreacted cAMP. After centrifuging, the radioactivity of the supernatant was measured by a liquid scintillation counter.
The action of the test compound on PDE activity was studied by calculating the inhibition percentage in the absence of calcium/calmodulin from the following formula, and represented as IC50 value. [formula] a: PDE activity in the presence of test compound and in the absence of calmodulin
b: PDE activity in the absence of test compound and calmoduline

[6] = dosage 30 μg into coronary artery
[7] = dosage 100 μg into coronary artery
[8] = dosage 300 μg into coronary artery

Structure (SMILES): CCCCCCCCCCc1cc2c(s1)-n1c(C)nnc1CN=C2c1ccccc1Cl [Example 72, 4-(2-chlorophenyl)-2-decyl-9-methyl 6H-thieno[3,2-f][1,2,4]triazolo[4,3-a][1,4]-diazepine]
- IC50 [1]: 0.03 to 0.1 µg/mL (≈ 0.0659 to 0.22 µM)

Structure (SMILES): CCCCCCCCCCc1cc2c(s1)-n1c(C)nnc1CN=C2c1ccccc1OC [Example 69, 2-decyl-4-(2-methoxyphenyl)-9-methyl-6H-thieno[3,2-f][1,2,4]triazolo[4,3-a][1,4]diazepine]
- IC50 [1]: 0.3 to 1 µg/mL (≈ 0.666 to 2.22 µM)

Structure (SMILES): CCCCCCc1cc2c(s1)-n1c(C)nnc1C(C)N=C2c1ccccc1Cl (stereo not shown) [Example 74, 4-(2-chlorophenyl)-2-hexyl-6,9-dimethyl-6H-thieno[3,2-f][1,2,4]triazolo[4,3-a][1,4]diazepine]
- Effect on coronary blood flow [2, 6]: 16%
- Effect on coronary blood flow [2, 7]: 57%
- Effect on coronary blood flow [2, 8]: 86%
- Number of Survivors/Number of Animals (PAF-induced lethal shock; 0.1 mg/kg p.o.): 5/6
- Survival rate (PAF-induced lethal shock; 0.1 mg/kg p.o.): 83.3%
- Number of Survivors/Number of Animals (PAF-induced lethal shock; 1 mg/kg p.o.): 7/7
- Survival rate (PAF-induced lethal shock; 1 mg/kg p.o.): 100%
- IC50 [3]: 1.2 µM

Structure (SMILES): CCc1cc2c(s1)-n1c(C)nnc1CN=C2c1ccccc1Cl [Etizolam, 6-(o-chlorophenyl)-8-ethyl-1-methyl-4H-s-triazolo[3,4-c]thieno[2,3-e][1,4]diazepine, reference compound]
- IC50 [1]: 1.3 µg/mL (≈ 3.79 µM)
- % of inhibition at each time after administration (in words) ([4]; one entry for 1, 3 and 6 hours): no effect

Structure (SMILES): CCCCCCc1cc2c(s1)-n1c(C)nnc1CN=C2c1ccccc1C [Example 58, 2-hexyl-4-(2-methylphenyl)-9-methyl-6H-thieno[3,2-f][1,2,4]triazolo[4,3-a][1,4]diazepine]
- Effect on coronary blood flow [2, 6]: 63%
- Effect on coronary blood flow [2, 7]: 107%
- Effect on coronary blood flow [2, 8]: 136%

Structure (SMILES): CCCCCCc1cc2c(s1)-n1c(C)nnc1CN=C2c1cc(OC)c(OC)c(OC)c1 [Example 67, 2-hexyl-4-(3,4,5-trimethoxyphenyl)-9-methyl-6H-thieno[3,2-f][1,2,4]triazolo[4,3-a][1,4]diazepine]
- Effect on coronary blood flow [2, 6]: 43%
- Effect on coronary blood flow [2, 7]: 86%
- Effect on coronary blood flow [2, 8]: 114%
- ED100 (vertebral blood flow): 0.078 mg/kg
- IC50 [5]: 7 µM

Structure (SMILES): CCCCCCc1cc2c(s1)-n1c(C)nnc1CN=C2c1ccccc1Cl [Example 54, 4-(2-chlorophenyl)-2-hexyl-9-methyl-6H-thieno[3,2-f][1,2,4]triazolo[4,3-a][1,4]diazepine]
- IC50 [1]: 0.03 to 0.1 µg/mL (≈ 0.0752 to 0.251 µM)
- inhibition at 10 mg/kg ([4]; 1 hour): 100%
- inhibition at 10 mg/kg ([4]; 3 hours): 100%
- inhibition at 10 mg/kg ([4]; 6 hours): 85%
- Number of Survivors/Number of Animals (PAF-induced lethal shock; 0.3 mg/kg p.o.): 3/10
- Survival rate (PAF-induced lethal shock; 0.3 mg/kg p.o.): 30%
- Number of Survivors/Number of Animals (PAF-induced lethal shock; 3 mg/kg p.o.): 10/10
- Survival rate (PAF-induced lethal shock; 3 mg/kg p.o.): 100%

Structure (SMILES): CCCCCCc1cc2c(s1)-n1c(C)nnc1CN=C2c1ccccc1OC [Example 55, 2-hexyl-4-(2-methoxyphenyl)-9-methyl-6H-thieno[3,2-f][1,2,4]triazolo[4,3-a][1,4]diazepine]
- IC50 [1]: 0.03 to 0.1 µg/mL (≈ 0.076 to 0.253 µM)

Structure (SMILES): CCCCCCc1cc2c(s1)-n1c(C)nnc1CN=C2c1cccc(C)c1 [Example 62, 2-hexyl-4-(3-methylphenyl)-9-methyl-6H-thieno[3,2-f][1,2,4]triazolo[4,3-a][1,4]diazepine]
- Number of Survivors/Number of Animals (PAF-induced lethal shock; 3 mg/kg p.o.): 6/8
- Survival rate (PAF-induced lethal shock; 3 mg/kg p.o.): 75%
- IC50 [5]: 11 µM

Structure (SMILES): CCCCCCc1cc2c(s1)-n1c(C)nnc1CN=C2c1ccc(C)cc1 [Example 61, 2-hexyl-4-(4-methylphenyl)-9-methyl-6H-thieno[3,2-f][1,2,4]triazolo[4,3-a][1,4]diazepine]
- Effect on coronary blood flow [2, 6]: 55%
- Effect on coronary blood flow [2, 7]: 69%
- Effect on coronary blood flow [2, 8]: 103%
- Number of Survivors/Number of Animals (PAF-induced lethal shock; 1 mg/kg p.o.): 6/8
- Survival rate (PAF-induced lethal shock; 1 mg/kg p.o.): 75%
- Number of Survivors/Number of Animals (PAF-induced lethal shock; 3 mg/kg p.o.): 8/8
- Survival rate (PAF-induced lethal shock; 3 mg/kg p.o.): 100%

Structure (SMILES): CCCCCCCCCCCCc1cc2c(s1)-n1c(C)nnc1CN=C2c1ccccc1Cl [Example 73, 4-(2-chlorophenyl)-2-dodecyl-9-methyl-6H-thieno[3,2-f][1,2,4]triazolo[4,3-a][1,4]-diazepine]
- IC50 [1]: 0.3 to 1 µg/mL (≈ 0.621 to 2.07 µM)

Structure (SMILES): CCCCCCCCc1cc2c(s1)-n1c(C)nnc1CN=C2c1ccccc1Cl [Example 57, 4-(2-chlorophenyl)-2-octyl-9-methyl-6H-thieno[3,2-f][1,2,4]triazolo[4,3-a][1,4]diazepine]
- IC50 [1]: 0.01 to 0.1 µg/mL (≈ 0.0234 to 0.234 µM)
- IC50 [5]: 11 µM

Structure (SMILES): CCCCCCc1cc2c(s1)-n1c(C)nnc1CN=C2c1cc(C)ccc1C [Example 65, 2-hexyl-4-(2,5-dimethylphenyl)-9-methyl-6H-thieno[3,2-f][1,2,4]triazolo[4,3-a][1,4]diazepine]
- ED100 (vertebral blood flow): 0.099 mg/kg
- IC50 [5]: 20 µM

Structure (SMILES): CCOC(=O)C1=C[C@]2(CC)CCCN3CCc4c(n1c1ccccc41)[C@@H]32 [vinpocetine, reference compound]
- IC50 [5]: 88 µM

Structure (SMILES): CCCCCCc1cc2c(s1)-n1c(C)nnc1C(C)N=C2c1ccccc1C (stereo not shown) [Example 68, 2-hexyl-4-(2-methylphenyl)-6,9-dimethyl 6H-thieno[3,2-f][1,2,4]triazolo[4,3-a][1,4]diazepine]
- Effect on coronary blood flow [2, 6]: 33%
- Effect on coronary blood flow [2, 7]: 63%
- Effect on coronary blood flow [2, 8]: 100%
- Number of Survivors/Number of Animals (PAF-induced lethal shock; 0.1 mg/kg p.o.): 5/6
- Survival rate (PAF-induced lethal shock; 0.1 mg/kg p.o.): 83.3%
- Number of Survivors/Number of Animals (PAF-induced lethal shock; 0.3 mg/kg p.o.): 6/7
- Survival rate (PAF-induced lethal shock; 0.3 mg/kg p.o.): 85.7%
- Number of Survivors/Number of Animals (PAF-induced lethal shock; 1 mg/kg p.o.): 6/7
- Survival rate (PAF-induced lethal shock; 1 mg/kg p.o.): 85.7%
- IC50 [3]: 1.1 µM
